Type in all cases: cell-based
Experiment [1] has as its system S. aureus ATCC 49951 (NB01006). The experiment is described as follows: MIC by broth microdilution, S. aureus NB01006. Particulars: Staphylococcus aureus, ATCC49951, CAMHB, 35° C., 20 hours, read-out: Antibacterial activity (MIC) NB01006. The essentials:
(§1)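 Per CLSI, strains grown overnight on Mueller-Hinton agar are tested in cation-adjusted Mueller-Hinton broth at about 5×10^5 CFU/mL against serially diluted compound, 1% DMSO final. Incubation runs 20 h at 35° C; MIC is judged visually with OD600 support.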

Experiment [2] concerns S. aureus NB01006-AVR005, gyrA (S84L), grlA (580F) and grlB (E471K). Briefly: microbe, parasite or virus in culture. Particulars: Staphylococcus aureus, 20 h, read-out: Antibacterial activity (MIC) NB01006-AVR005. The method, boiled down:
as §1

The test system of experiment [3] is S. aureus NB01080 fluoroquinolone-resistant clinical isolate. Briefly: MIC by broth microdilution, S. aureus NB01080. Particulars: Staphylococcus aureus, CAMHB, 35° C., 20 hours, read-out: Antibacterial activity (MIC) NB01080. The method, boiled down: as §1
(In broth dilution the organism is exposed to a series of concentrations in liquid medium.)

For experiment [4], the system named is E. faecalis ATCC 29212 (NB04001). The experiment is described as follows: MIC by broth microdilution, E. faecalis NB04001. Particulars: Enterococcus faecalis, ATCC29212, CAMHB, 35° C., 20 hours, read-out: Antibacterial activity (MIC) NB04001. The method, boiled down:
as §1

Experiment [5] relates to S. pneumoniae ATCC 25922 (NB07001). The experiment is described as follows: MIC by broth microdilution, S. pneumoniae NB07001. Particulars: Streptococcus pneumoniae, ATCC25922, 20 h, read-out: Antibacterial activity (MIC) NB07001. The method, boiled down:
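MIC in μg/mL taken as the lowest concentration with no visible growth, checked by 600 nm reading after 20 h at 35°C, ambient air. Strains tested per CLSI microdilution in cation-adjusted Mueller-Hinton broth at about 5×10^5 CFU/mL, compounds as two-fold series, 1% DMSO final.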

Experiment [6] deals with E. coli ATCC 25922 (NB27001). Briefly: MIC by broth microdilution, E. coli NB27001. The settings on record: Escherichia coli, ATCC25922, CAMHB, 35° C., 20 hours, read-out: Antibacterial activity (MIC) NB27001. The essentials: as §1
The subject of experiment [7] is P. aeruginosa NB52019, wild-type PAO1 strain. The experiment is described as follows: MIC by broth microdilution, P. aeruginosa NB52019. The settings on record: Pseudomonas aeruginosa, CAMHB, 35° C., 20 hours, read-out: Antibacterial activity (MIC) NB52019. The method, boiled down: as §1

≈ marks a conversion by molar mass, not a printed value.

`C[C@H]1COc2c(N3CCC4(CC3)CNC4)c(F)cc3cc(C(=O)O)c(=O)n1c23` [Example 1.17, (S)-9-fluoro-3-methyl-5-oxo-10-(2,7-diazaspiro[3,5]nonan-7-yl)-2,3-dihydro-5H-[1,4]oxazino[2,3,4-ij]quinoline-6-carboxylic acid]: the MIC in experiment [1], in experiment [2], in experiment [3], in experiment [4], in experiment [5] and in experiment [6] was over 32 µg/mL each time. In addition, the MIC in experiment [7] was over 32 µg/mL.
As for `C[C@H]1COc2c(N3CC4CC4(CN)C3)c(F)cc3cc(C(=O)O)c(=O)n1c23` (stereo partly drawn) [Example 1.18], the MIC in experiment [1] is under 1 µg/mL; in experiment [2] it was over 32 µg/mL; in experiment [3], over 32 µg/mL; in experiment [4], 1 to 32 µg/mL (≈ 2.68 to 85.7 µM); in experiment [5], 1 to 32 µg/mL (≈ 2.68 to 85.7 µM); in experiment [6], over 32 µg/mL. The MIC in experiment [7] is over 32 µg/mL.
For `CC[C@H]1COc2c(N3CC[C@@H](C4(N)CC4)C3)c(F)cc3cc(C(=O)O)c(=O)n1c23` [Example 1.19, (S)-10-((R)-3-(1-aminocyclopropyl)pyrrolidin-1-yl)-3-ethyl-9-fluoro-5-oxo-2,3-dihydro-5H-[1,4]oxazino[2,3,4-ij]quinoline-6-carboxylic acid], the MIC in experiment [1] was 1 to 32 µg/mL (≈ 2.49 to 79.7 µM); in experiment [2], over 32 µg/mL; in experiment [3], 1 to 32 µg/mL (≈ 2.49 to 79.7 µM); in experiment [4], 1 to 32 µg/mL (≈ 2.49 to 79.7 µM); in experiment [5] it was under 1 µg/mL; in experiment [6], over 32 µg/mL. Also, in experiment [7], the MIC is over 32 µg/mL.
Regarding `NC1([C@@H]2CCN(c3c(F)cc4cc(C(=O)O)c(=O)n5c4c3OCC5)C2)CC1` [Example 1.20, (R)-10-(3-(1-aminocyclopropyl)pyrrolidin-1-yl)-9-fluoro-5-oxo-2,3-dihydro-5H-[1,4]oxazino[2,3,4-ij]quinoline-6-carboxylic acid], the MIC is 1 to 32 µg/mL (≈ 2.68 to 85.7 µM) in experiment [1]; over 32 µg/mL in experiment [2]; 1 to 32 µg/mL (≈ 2.68 to 85.7 µM) in experiment [3]; 1 to 32 µg/mL (≈ 2.68 to 85.7 µM) in experiment [4]; 1 to 32 µg/mL (≈ 2.68 to 85.7 µM) in experiment [5]; over 32 µg/mL in experiment [6]. In experiment [7], the MIC is over 32 µg/mL.
Consider `C[C@@H]1COc2c(N3CC[C@@H](C4(N)CC4)C3)c(F)cc3cc(C(=O)O)c(=O)n1c23` [Example 1.21, (R)-10-((R)-3-(1-aminocyclopropyl)pyrrolidin-1-yl)-9-fluoro-3-methyl-5-oxo-2,3-dihydro-5H-[1,4]oxazino[2,3,4-ij]quinoline-6-carboxylic acid], for which the MIC is 1 to 32 µg/mL (≈ 2.58 to 82.6 µM) in experiment [1]; over 32 µg/mL in experiment [2]; over 32 µg/mL in experiment [3]; over 32 µg/mL in experiment [4]; 1 to 32 µg/mL (≈ 2.58 to 82.6 µM) in experiment [5]; over 32 µg/mL in experiment [6]. Besides, the MIC in experiment [7] was over 32 µg/mL.
In the case of `C[C@@H]1Cn2c(=O)c(C(=O)O)cc3cc(F)c(N4CC[C@@H](C5(N)CC5)C4)c(c32)O1` [Example 1.22, (R)-10-((R)-3-(1-aminocyclopropyl)pyrrolidin-1-yl)-9-fluoro-2-methyl-5-oxo-2,3-dihydro-5H-[1,4]oxazino[2,3,4-ij]quinoline-6-carboxylic acid], the MIC is 1 to 32 µg/mL (≈ 2.58 to 82.6 µM) in experiment [1]; over 32 µg/mL in experiment [2]; 1 to 32 µg/mL (≈ 2.58 to 82.6 µM) in experiment [3]; 1 to 32 µg/mL (≈ 2.58 to 82.6 µM) in experiment [4]; 1 to 32 µg/mL (≈ 2.58 to 82.6 µM) in experiment [5]; over 32 µg/mL in experiment [6]. Besides, in experiment [7], the MIC is over 32 µg/mL.
As for `C[C@H]1Cn2c(=O)c(C(=O)O)cc3cc(F)c(N4CC[C@@H](C5(N)CC5)C4)c(c32)O1` [Example 1.23, (S)-10-((R)-3-(1-aminocyclopropyl)pyrrolidin-1-yl)-9-fluoro-2-methyl-5-oxo-2,3-dihydro-5H-[1,4]oxazino[2,3,4-ij]quinoline-6-carboxylic acid], the MIC was over 32 µg/mL in experiment [1]; over 32 µg/mL in experiment [2]; over 32 µg/mL in experiment [3]; over 32 µg/mL in experiment [4]; 1 to 32 µg/mL (≈ 2.58 to 82.6 µM) in experiment [5]; 1 to 32 µg/mL (≈ 2.58 to 82.6 µM) in experiment [6]. For the same compound, the MIC in experiment [7] was over 32 µg/mL.
As for `C[C@H]1CCOc2c(N3CC[C@@H](C4(N)CC4)C3)c(F)cc3cc(C(=O)O)c(=O)n1c23` [Example 1.24, (S)-11-((R)-3-(1-aminocyclopropyl)pyrrolidin-1-yl)-10-fluoro-4-methyl-6-oxo-3,4-dihydro-2H,6H-[1,4]oxazepino[2,3,4-ij]quinoline-7-carboxylic acid], the MIC is under 1 µg/mL in experiment [1]; 1 to 32 µg/mL (≈ 2.49 to 79.7 µM) in experiment [2]; 1 to 32 µg/mL (≈ 2.49 to 79.7 µM) in experiment [3]; under 1 µg/mL in experiment [4]; under 1 µg/mL in experiment [5]; 1 to 32 µg/mL (≈ 2.49 to 79.7 µM) in experiment [6]. The MIC in experiment [7] is over 32 µg/mL.
`C[C@H]1COc2c(N3Cc4cccc(F)c4C3)c(F)cc3cc(C(=O)O)c(=O)n1c23` [Example 1.25, (S)-9-fluoro-10-(4-fluoroisoindolin-2-yl)-3-methyl-5-oxo-2,3-dihydro-5H-[1,4]oxazino[2,3,4-ij]quinoline-6-carboxylic acid]: the MIC in experiment [1] is under 1 µg/mL; in experiment [2] it was over 32 µg/mL; in experiment [3] it was under 1 µg/mL; in experiment [4], 1 to 32 µg/mL (≈ 2.51 to 80.3 µM); in experiment [5], 1 to 32 µg/mL (≈ 2.51 to 80.3 µM); in experiment [6], over 32 µg/mL. In experiment [7], the MIC was over 32 µg/mL.
Turning to `C[C@H]1COc2c(N3CCC(C)(CN)C3)c(F)cc3cc(C(=O)O)c(=O)n1c23` (stereo partly drawn) [Example 1.26, (3S)-10-(3-(aminomethyl)-3-methylpyrrolidin-1-yl)-9-fluoro-3-methyl-5-oxo-2,3-dihydro-5H-[1,4]oxazino[2,3,4-ij]quinoline-6-carboxylic acid], the MIC is 1 to 32 µg/mL (≈ 2.66 to 85.2 µM) in experiment [1]; over 32 µg/mL in experiment [2]; 1 to 32 µg/mL (≈ 2.66 to 85.2 µM) in experiment [3]; 1 to 32 µg/mL (≈ 2.66 to 85.2 µM) in experiment [4]; 1 to 32 µg/mL (≈ 2.66 to 85.2 µM) in experiment [5]; 1 to 32 µg/mL (≈ 2.66 to 85.2 µM) in experiment [6]. Moreover, in experiment [7], the MIC is over 32 µg/mL.
Regarding `C[C@H]1COc2c(N3CC[C@@H](C4(N(C)C)CC4)C3)c(F)cc3cc(C(=O)O)c(=O)n1c23` [Example 1.27, (S)-10-((R)-3-(1-(dimethylamino)cyclopropyl)pyrrolidin-1-yl)-9-fluoro-3-methyl-5-oxo-2,3-dihydro-5H-[1,4]oxazino[2,3,4-ij]quinoline-6-carboxylic acid], the MIC in experiment [1] was 1 to 32 µg/mL (≈ 2.41 to 77 µM); in experiment [2], over 32 µg/mL; in experiment [3] it was 1 to 32 µg/mL (≈ 2.41 to 77 µM); in experiment [4], 1 to 32 µg/mL (≈ 2.41 to 77 µM); in experiment [5], under 1 µg/mL; in experiment [6], 1 to 32 µg/mL (≈ 2.41 to 77 µM). The MIC in experiment [7] was over 32 µg/mL.
Regarding `C[C@H]1COc2c(N3CCC4(CC3)CC(N)C4)c(F)cc3cc(C(=O)O)c(=O)n1c23` [Example 1.30, (S)-10-(2-amino-7-azaspiro[3.5]nonan-7-yl)-9-fluoro-3-methyl-5-oxo-2,3-dihydro-5H-[1,4]oxazino[2,3,4-ij]quinoline-6-carboxylic acid], the MIC in experiment [1] is 1 to 32 µg/mL (≈ 2.49 to 79.7 µM); in experiment [2] it was over 32 µg/mL; in experiment [3], over 32 µg/mL; in experiment [4], 1 to 32 µg/mL (≈ 2.49 to 79.7 µM); in experiment [5] it was 1 to 32 µg/mL (≈ 2.49 to 79.7 µM); in experiment [6] it was over 32 µg/mL. Besides, the MIC in experiment [7] was over 32 µg/mL.
As to `C[C@H]1COc2c(N3Cc4cncnc4C3)c(F)cc3cc(C(=O)O)c(=O)n1c23` [Example 1.31, (S)-10-(5,7-dihydro-6H-pyrrolo[3,4-d]pyrimidin-6-yl)-9-fluoro-3-methyl-5-oxo-2,3-dihydro-5H-[1,4]oxazino[2,3,4-ij]quinoline-6-carboxylic acid], the MIC in experiment [1] is under 1 µg/mL; in experiment [2] it was over 32 µg/mL; in experiment [3], 1 to 32 µg/mL (≈ 2.62 to 83.7 µM); in experiment [4] it was 1 to 32 µg/mL (≈ 2.62 to 83.7 µM); in experiment [5], under 1 µg/mL; in experiment [6], 1 to 32 µg/mL (≈ 2.62 to 83.7 µM). Also, the MIC in experiment [7] is over 32 µg/mL.
Turning to `C[C@H]1COc2c(N3CC[C@@H](C(C)(C)O)C3)c(F)cc3cc(C(=O)O)c(=O)n1c23` [Example 1.34, (S)-9-fluoro-10-((R)-3-(2-hydroxypropan-2-yl)pyrrolidin-1-yl)-3-methyl-5-oxo-2,3-dihydro-5H-[1,4]oxazino[2,3,4-ij]quinoline-6-carboxylic acid], the MIC in experiment [1] is 1 to 32 µg/mL (≈ 2.56 to 82 µM); in experiment [2], over 32 µg/mL; in experiment [3] it was over 32 µg/mL; in experiment [4], over 32 µg/mL; in experiment [5], over 32 µg/mL; in experiment [6] it was over 32 µg/mL. Moreover, the MIC in experiment [7] is over 32 µg/mL.
For `C[C@H]1COc2c(N3CC[C@H](C4(N)CC4)C3)c(F)cc3cc(C(=O)O)c(=O)n1c23` [Example 1.35, (S)-10-((S)-3-(1-aminocyclopropyl)pyrrolidin-1-yl)-9-fluoro-3-methyl-5-oxo-2,3-dihydro-5H-[1,4]oxazino[2,3,4-ij]quinoline-6-carboxylic acid], the MIC in experiment [1] is 1 to 32 µg/mL (≈ 2.58 to 82.6 µM); in experiment [2], over 32 µg/mL; in experiment [3], 1 to 32 µg/mL (≈ 2.58 to 82.6 µM); in experiment [4], 1 to 32 µg/mL (≈ 2.58 to 82.6 µM); in experiment [5], 1 to 32 µg/mL (≈ 2.58 to 82.6 µM); in experiment [6], 1 to 32 µg/mL (≈ 2.58 to 82.6 µM). Also, the MIC in experiment [7] is over 32 µg/mL.

For the origin of these results see patent publication US20180318311A1, “TRICYCLIC 2-QUINOLINONES AS ANTIBACTERIALS” (priority 2017, published 2018).
